Measurements published in US20230117034A1, “PYRAZOLOTRIAZINES” (Bayer Aktiengesellschaft, priority 2019, published 2023).
pIC50: −log10 of the molar value.

What was measured:
[1] = biological target: T1, CDK2/CycE (Homo sapiens, UniProt P24941); experiment: CDK2/CycE kinase assay (TR-FRET, 2 mM ATP); type: biochemical; settings: 2 mM ATP (high ATP); median; read-out: CDK2/CyclinE, 2 mM ATP (high ATP), IC50 (median)
T1 construct: purchased ProQinase GmbH (Freiburg, Germany); host or cells: insect cells (Sf9)
From the text: CDK2/CycE-inhibitory activity of compounds of the present invention was quantified employing the CDK2/CycE TR-FRET assay as described in the following paragraphs.
Recombinant fusion proteins of GST and human CDK2 and of GST and human CycE, expressed in insect cells (Sf9) and purified by Glutathion-Sepharose affinity chromatography, were purchase from ProQinase GmbH (Freiburg, Germany). As substrate for the kinase reaction biotinylated peptide biotin-Ttds-YISPLKSPYKISEG (C-terminus in amid form) was used which can be purchased e.g. form the company JERINI peptide technologies (Berlin, Germany).
For the assay 50 nanoL of a 100 fold concentrated solution of the test compound in DMSO was pipetted into a black low volume 384 well microtiter plate or a black 1536 well microtiter plate (both Greiner Bio-One, Frickenhausen, Germany), 2 microL of a solution of CDK2/CycE in aqueous assay buffer [50 millimol/L Tris/HCl pH 8.0, 10 millimol/L MgCl2, 1.0 millimol/L dithiothreitol, 0.1 millimol/L sodium ortho-vanadate, 0.01% (v/v) Nonidet-P40 (Sigma)] were added and the mixture was incubated for 15 min at 22° C. to allow pre-binding of the test compounds to the enzyme before the start of the kinase reaction. Then the kinase reaction was started by the addition of 3 microL of a solution of adenosine-tri-phosphate (ATP, 3.33 millimol/L=>final conc. in the 5 microL assay volume is 2 millimol/L) and substrate (1.25 micromol/L=>final conc. in the 5 microL assay volume is 0.75 micromol/L) in assay buffer and the resulting mixture was incubated for a reaction time of 25 min at 22° C. The concentration of CDK2/CycE was adjusted depending of the activity of the enzyme lot and was chosen appropriate to have the assay in the linear range, typical concentrations were in the range of 10 ng/ml. The reaction was stopped by the addition of 3 microL of a solution of TR-FRET detection reagents (0.333 micromol/L streptavidine-XL665 [Cisbio Bioassays, Codolet, France] and 1.67 nanomol/L anti-RB(pSer807/pSer8l 1)-antibody from BD Pharmingen [#558389] and 2 nanomol/L LANCE EU-W1024 labeled anti-mouse IgG antibody [Perkin-Elmer, product no. AD0077, as an alternative a Terbium-cryptate-labeled anti-mouse IgG antibody from Cisbio Bioassays can be used]) in an aqueous EDTA-solution (167 millimol/L EDTA, 0.2% (w/v) bovine serum albumin in 100 millimol/L HEPES pH 7.5).
The resulting mixture was incubated 1 h at 22° C. to allow the formation of complex between the phosphorylated biotinylated peptide and the detection reagents. Subsequently the amount of phosphorylated substrate was evaluated by measurement of the resonance energy transfer from the Eu-chelate to the streptavidine-XL. Therefore, the fluorescence emissions at 620 nm and 665 nm after excitation at 350 nm was measured in a TR-FRET reader, e.g. a Pherastar (BMG Labtechnologies, Offenburg, Germany) or a Viewlux (Perkin-Elmer). The ratio of the emissions at 665 nm and at […] was taken as the measure for the amount of phosphorylated substrate. The data were normalised (enzyme reaction without inhibitor=0% inhibition, all other assay components but no enzyme=100% inhibition).

[2] = test system: CAL-120, human breast adenocarcinoma cells; experiment: Proliferation assay CAL-120 (crystal violet, 4 days); type: cell-based; settings: Homo sapiens, CAL-120, 96 h, CAL-120 cells, median, read-out: Prolif-CAL-120, IC50-[mol/l] (median)
Protocol: Human tumour cells were originally obtained from the American Type Culture Collection (ATCC), or from the Deutsche Sammlung von Mikroorganismen und Zellkulturen (DSMZ, German Collection of Microorganisms and Cell Cultures). Cultivated tumour cells (CAL-120, human breast adenocarcinoma cells, DSMZ ACC-459; MDA-MB-231, human breast cancer cells, ATCC HTB-26) were plated at a density of 4,000 cells/well in a 96-well multititer plate in 200 microL of their respective growth medium supplemented 10% fetal calf serum. After 24 hours, the cells of one plate (zero-point plate) were stained with crystal violet (see below), while the medium of the other plates was supplemented with the test substances in various concentrations (0 micromol/L, as well as in the range of 0.01-10 micromol/L; the final concentration of the solvent dimethyl sulfoxide was adjusted to 0.1%) using a Tecan HP D300 Digital Dispenser. The cells were incubated for 4 days in the presence of test substances. Cell proliferation was determined by staining the cells with crystal violet: the cells were fixed by adding 20 microL/measuring point of an 11% glutaric aldehyde solution for 15 minutes at room temperature. After three washing cycles of the fixed cells with water, the plates were dried at room temperature. The cells were stained by adding 100 microL/measuring point of a 0.1% crystal violet solution (pH 3.0). After three washing cycles of the stained cells with water, the plates were dried at room temperature. The dye was dissolved by adding 100 microL/measuring point of a 10% acetic acid solution. The extinction was determined by photometry at a wavelength of 595 nm. The change of cell number, in percent, was calculated by normalization of the measured values to the extinction values of the zero-point plate (=0%) and the extinction of the untreated (0 μM) cells (=100%). The IC50 values (inhibitory concentration at 50% of maximal effect) were determined by means of a 4 parameter fit.

| pIC50 [1] | pIC50 [2] | Compound |
| --- | --- | --- |
| < 4.70 | 6.23 | CN1CCN(c2nc(NCc3nc4ccccc4[nH]3)n3ncc(Br)c3n2)CC1=O [Example 131, 4-(4-{[(1H-benzimidazol-2-yl)methyl]amino}-8-bromopyrazolo[1,5-a][1,3,5]triazin-2-yl)-1-methylpiperazin-2-one] |
| < 4.70 | 6.35 | Brc1cnn2c(NCc3nc4ccccc4[nH]3)nc(N3CCN(C4CC4)CC3)nc12 [Example 138, N-[(1H-benzimidazol-2-yl)methyl]-8-bromo-2-(4-cyclopropylpiperazin-1-yl)pyrazolo[1,5-a][1,3,5]triazin-4-amine] |
| 5.90 | 6.59 | C[C@@H]1CCCCN1c1nc(NCc2nc3ccccc3[nH]2)n2ncc(Br)c2n1 [Example 140, N-[(1H-benzimidazol-2-yl)methyl]-8-bromo-2-[(2R)-2-methylpiperidin-1-yl]pyrazolo[1,5-a][1,3,5]triazin-4-amine] |
| 4.75 | 6.51 | Brc1cnn2c(NCc3nc4ccccc4[nH]3)nc(N3CCC3)nc12 [Example 143, 2-(azetidin-1-yl)-N-[(1H-benzimidazol-2-yl)methyl]-8-bromopyrazolo[1,5-a][1,3,5]triazin-4-amine] |
| 5.11 | 6.96 | [O-][S+]1CCN(c2nc(NCc3nc4ccccc4[nH]3)n3ncc(Br)c3n2)CC1 [Example 144, 4-(4-{[(1H-benzimidazol-2-yl)methyl]amino}-8-bromopyrazolo[1,5-a][1,3,5]triazin-2-yl)-1lambda^4-thiomorpholin-1-one] |
| 5.21 | 6.65 | N=S1(=O)CCN(c2nc(NCc3nc4ccccc4[nH]3)n3ncc(Br)c3n2)CC1 [Example 145, 4-(4-{[(1H-benzimidazol-2-yl)methyl]amino}-8-bromopyrazolo[1,5-a][1,3,5]triazin-2-yl)-1-imino-1lambda^6-thiomorpholin-1-one] |
| 5.20 | 6.79 | Brc1cnn2c(NCc3nc4ccccc4[nH]3)nc(N3CCN4CCC[C@@H]4C3)nc12 [Example 149, N-[(1H-benzimidazol-2-yl)methyl]-8-bromo-2-[(8aR)-hexahydropyrrolo[1,2-a]pyrazin-2 (1 H)-yl]pyrazolo[1,5-a][1,3,5]triazin-4-amine] |

Further lines, the compound ahead of its results:

| Compound | pIC50 [1] | pIC50 [2] |
| --- | --- | --- |
| CC(C)c1cnn2c(NCc3nc4ccccc4[nH]3)nc(N3CCOC[C@H]3C)nc12 [Example 7, N-[(1H-benzimidazol-2-yl)methyl]-2-[(3R)-3-methylmorpholin-4-yl]-8-(propan-2-yl)pyrazolo[1,5-a][1,3,5]triazin-4-amine] | 5.18 | – |
| CC(C)c1cnn2c(NCc3nc4ccccc4[nH]3)nc(N3CC4(COC4)C3)nc12 [Example 9, N-[(1H-benzimidazol-2-yl)methyl]-2-(2-oxa-6-azaspiro[3.3]heptan-6-yl)-8-(propan-2-yl)pyrazolo[1,5-a][1,3,5]triazin-4-amine] | 4.83 | – |
| CC1(C)CN(c2nc(NCc3nnc(-c4ccccc4)[nH]3)n3ncc(C4CC4)c3n2)CCO1 [Example 94, 8-cyclopropyl-2-(2,2-dimethylmorpholin-4-yl)-N-[(5-phenyl-4H-1,2,4-triazol-3-yl)methyl]pyrazolo[1,5-a][1,3,5]triazin-4-amine] | < 4.70 | 6.75 |
| Fc1ccccc1-c1cnn2c(NCc3nc4ccccc4[nH]3)nc(N3CCOCC3)nc12 [Example 95, N-[(1H-benzimidazol-2-yl)methyl]-8-(2-fluorophenyl)-2-(morpholin-4-yl)pyrazolo[1,5-a][1,3,5]triazin-4-amine] | < 4.70 | 6.64 |
| c1ccc(-c2cnn3c(NCc4nc5ccccc5[nH]4)nc(N4CCOCC4)nc23)cc1 [Example 104, N-[(1H-benzimidazol-2-yl)methyl]-2-(morpholin-4-yl)-8-phenylpyrazolo[1,5-a][1,3,5]triazin-4-amine] | < 4.70 | 6.90 |
| Clc1cccc(-c2cnn3c(NCc4nc5ccccc5[nH]4)nc(N4CCOCC4)nc23)c1 [Example 107, N-[(1H-benzimidazol-2-yl)methyl]-8-(3-chlorophenyl)-2-(morpholin-4-yl)pyrazolo[1,5-a][1,3,5]triazin-4-amine] | < 4.70 | 6.73 |
| NCCc1cccc2[nH]c(CNc3nc(N4CCOCC4)nc4c(Br)cnn34)nc12 [Example 112, N-{[7-(2-aminoethyl)-1H-benzimidazol-2-yl]methyl}-8-bromo-2-(morpholin-4-yl)pyrazolo[1,5-a][1,3,5]triazin-4-amine] | 5.36 | – |
| NCCc1ccc2[nH]c(CNc3nc(N4CCOCC4)nc4c(Br)cnn34)nc2c1.O=CO [Example 113, formic acid-N-{[5-(2-aminoethyl)-1H-benzimidazol-2-yl]methyl}-8-bromo-2-(morpholin-4-yl)pyrazolo[1,5-a][1,3,5]triazin-4-amine (1/1)] | 5.92 | – |
| NCCCc1cccc2[nH]c(CNc3nc(N4CCOCC4)nc4c(Br)cnn34)nc12.O=CO [Example 114, formic acid-N-{[4-(3-aminopropyl)-1H-benzimidazol-2-yl]methyl}-8-bromo-2-(morpholin-4-yl)pyrazolo[1,5-a][1,3,5]triazin-4-amine (1/1)] | 5.26 | – |
| CC(=O)NCCCc1cccc2[nH]c(CNc3nc(N4CCOCC4)nc4c(Br)cnn34)nc12.O=CO [Example 115, formic acid-N-{3-[2-({[8-bromo-2-(morpholin-4-yl)pyrazolo[1,5-a][1,3,5]triazin-4-yl]amino}methyl)-1H-benzimidazol-4-yl]propyl}acetamide (1/1)] | 4.97 | – |
| CN1CCN(c2nc(NCc3nnc(-c4ccccc4)[nH]3)n3ncc(Br)c3n2)CC1=O [Example 121, 4-(8-bromo-4-{[(5-phenyl-4H-1,2,4-triazol-3-yl)methyl]amino}pyrazolo[1,5-a][1,3,5]triazin-2-yl)-1-methylpiperazin-2-one] | 5.66 | 6.39 |
| FC(F)(F)CN1CCN(c2nc(NCc3nc4ccccc4[nH]3)n3ncc(Br)c3n2)CC1 [Example 139, N-[(1H-benzimidazol-2-yl)methyl]-8-bromo-2-[4-(2,2,2-trifluoroethyl)piperazin-1-yl]pyrazolo[1,5-a][1,3,5]triazin-4-amine] | 4.83 | 6.35 |
| OCC1CCN1c1nc(NCc2nc3ccccc3[nH]2)n2ncc(Br)c2n1 (stereo not shown) [Example 147, [1-[4-(1H-benzimidazol-2-ylmethylamino)-8-bromo-pyrazolo[1,5-a][1,3,5]triazin-2-yl]azetidin-2-yl]methanol] | 5.51 | 6.51 |
